# Results: ChEMBL document CHEMBL1201862, “PubChem BioAssay data set” (2004)
# Active and inactive are the calls of the source.
# Experiments:
# Type in all cases: functional
# Vero = Vero cell cytotoxicity, cytotoxicity control for flavivirus capping enzyme inhibitors (AID 588742); settings: Chlorocebus sabaeus
# [1] = target: T1, Rac GTPase-activating protein 1 (Homo sapiens, UniProt Q9H0H5); experiment: MgcRacGAP GTPase-activating activity inhibitors, confirmation, biochemical, ADP Hunter fluorescence, primary and confirmatory (AID 624330)
# T1 sequence (Q9H0H5 whole entry): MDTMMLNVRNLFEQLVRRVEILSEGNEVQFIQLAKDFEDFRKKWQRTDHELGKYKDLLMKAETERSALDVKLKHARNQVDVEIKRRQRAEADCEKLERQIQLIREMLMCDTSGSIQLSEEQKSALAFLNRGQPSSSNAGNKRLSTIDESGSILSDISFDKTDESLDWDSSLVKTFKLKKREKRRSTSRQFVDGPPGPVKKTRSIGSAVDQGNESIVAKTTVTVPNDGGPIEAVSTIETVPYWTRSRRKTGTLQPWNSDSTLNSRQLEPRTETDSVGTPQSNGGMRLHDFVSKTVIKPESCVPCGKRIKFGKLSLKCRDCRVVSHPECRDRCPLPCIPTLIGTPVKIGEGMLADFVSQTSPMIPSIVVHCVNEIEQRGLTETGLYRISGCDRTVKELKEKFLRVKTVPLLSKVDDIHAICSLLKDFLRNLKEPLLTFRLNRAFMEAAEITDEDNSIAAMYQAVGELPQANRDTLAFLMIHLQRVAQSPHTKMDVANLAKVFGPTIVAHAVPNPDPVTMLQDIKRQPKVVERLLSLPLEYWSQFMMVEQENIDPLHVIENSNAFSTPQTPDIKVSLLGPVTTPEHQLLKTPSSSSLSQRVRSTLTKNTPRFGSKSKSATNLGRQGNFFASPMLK
# [2] = target: T2, Sentrin-specific protease 8 (Homo sapiens, UniProt Q96LD8); experiment: SENP8 protease inhibitors, SAR follow-up, biochemical, luminescence, set 2 (AID 588601)
# T2 sequence (Q96LD8 whole entry): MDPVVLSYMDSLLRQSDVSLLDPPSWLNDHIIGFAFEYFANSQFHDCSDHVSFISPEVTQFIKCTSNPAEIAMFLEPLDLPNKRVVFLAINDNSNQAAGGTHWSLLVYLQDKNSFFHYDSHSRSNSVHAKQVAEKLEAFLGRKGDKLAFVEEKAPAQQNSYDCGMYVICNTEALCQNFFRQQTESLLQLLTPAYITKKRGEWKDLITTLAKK
# [3] = target: T3, Sentrin-specific protease 7 (Homo sapiens, UniProt Q9BQF6); experiment: SENP7 protease inhibitors, SAR follow-up, biochemical, luminescence, set 2 (AID 588600)
# T3 sequence (Q9BQF6 whole entry): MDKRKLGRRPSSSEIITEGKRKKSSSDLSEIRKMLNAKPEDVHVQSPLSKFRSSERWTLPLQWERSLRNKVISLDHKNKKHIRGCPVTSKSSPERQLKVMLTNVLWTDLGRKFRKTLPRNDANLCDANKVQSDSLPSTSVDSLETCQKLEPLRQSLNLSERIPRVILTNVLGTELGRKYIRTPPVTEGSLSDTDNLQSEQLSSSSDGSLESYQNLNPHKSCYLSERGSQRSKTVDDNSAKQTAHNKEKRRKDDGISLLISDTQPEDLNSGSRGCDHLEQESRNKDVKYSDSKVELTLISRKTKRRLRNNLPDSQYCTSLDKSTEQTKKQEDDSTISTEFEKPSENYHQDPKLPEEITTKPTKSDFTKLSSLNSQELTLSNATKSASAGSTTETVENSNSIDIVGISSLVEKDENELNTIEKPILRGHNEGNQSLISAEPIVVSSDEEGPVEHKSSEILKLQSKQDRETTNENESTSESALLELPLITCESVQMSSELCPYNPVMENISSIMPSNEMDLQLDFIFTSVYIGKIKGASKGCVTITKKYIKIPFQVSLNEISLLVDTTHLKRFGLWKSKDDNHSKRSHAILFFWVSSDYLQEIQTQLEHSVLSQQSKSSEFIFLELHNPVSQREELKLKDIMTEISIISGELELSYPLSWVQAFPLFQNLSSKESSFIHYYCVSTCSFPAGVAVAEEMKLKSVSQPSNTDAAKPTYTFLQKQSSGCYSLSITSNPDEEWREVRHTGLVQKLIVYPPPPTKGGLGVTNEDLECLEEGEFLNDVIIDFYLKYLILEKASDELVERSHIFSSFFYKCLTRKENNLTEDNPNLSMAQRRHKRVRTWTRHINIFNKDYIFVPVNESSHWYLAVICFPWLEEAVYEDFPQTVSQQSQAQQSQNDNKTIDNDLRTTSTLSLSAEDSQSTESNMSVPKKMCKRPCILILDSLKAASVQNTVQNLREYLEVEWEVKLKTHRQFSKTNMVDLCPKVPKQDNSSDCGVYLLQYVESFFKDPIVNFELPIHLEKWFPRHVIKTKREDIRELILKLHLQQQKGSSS
# Caspase-3 = target: T4, Caspase-3 (Homo sapiens, UniProt P42574); experiment: caspase-3 inhibitors as off-family protease, SAR follow-up, selectivity assay for SENP protease inhibitor project, biochemical, luminescence, set 2 (AID 588599)
# T4 sequence (P42574 whole entry): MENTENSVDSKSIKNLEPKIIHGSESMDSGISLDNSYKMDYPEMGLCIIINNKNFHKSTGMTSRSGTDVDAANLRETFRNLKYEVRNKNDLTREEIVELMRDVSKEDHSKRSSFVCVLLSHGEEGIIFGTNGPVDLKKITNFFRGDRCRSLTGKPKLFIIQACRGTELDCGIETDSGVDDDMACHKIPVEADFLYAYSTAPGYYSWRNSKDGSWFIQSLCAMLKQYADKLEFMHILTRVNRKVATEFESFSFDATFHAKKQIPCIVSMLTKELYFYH
# [4] = target: T5, Sentrin-specific protease 6 (Homo sapiens, UniProt Q9GZR1); experiment: SENP6 protease inhibitors, SAR follow-up, biochemical, luminescence, set 2 (AID 588598)
# T5 sequence (Q9GZR1 whole entry): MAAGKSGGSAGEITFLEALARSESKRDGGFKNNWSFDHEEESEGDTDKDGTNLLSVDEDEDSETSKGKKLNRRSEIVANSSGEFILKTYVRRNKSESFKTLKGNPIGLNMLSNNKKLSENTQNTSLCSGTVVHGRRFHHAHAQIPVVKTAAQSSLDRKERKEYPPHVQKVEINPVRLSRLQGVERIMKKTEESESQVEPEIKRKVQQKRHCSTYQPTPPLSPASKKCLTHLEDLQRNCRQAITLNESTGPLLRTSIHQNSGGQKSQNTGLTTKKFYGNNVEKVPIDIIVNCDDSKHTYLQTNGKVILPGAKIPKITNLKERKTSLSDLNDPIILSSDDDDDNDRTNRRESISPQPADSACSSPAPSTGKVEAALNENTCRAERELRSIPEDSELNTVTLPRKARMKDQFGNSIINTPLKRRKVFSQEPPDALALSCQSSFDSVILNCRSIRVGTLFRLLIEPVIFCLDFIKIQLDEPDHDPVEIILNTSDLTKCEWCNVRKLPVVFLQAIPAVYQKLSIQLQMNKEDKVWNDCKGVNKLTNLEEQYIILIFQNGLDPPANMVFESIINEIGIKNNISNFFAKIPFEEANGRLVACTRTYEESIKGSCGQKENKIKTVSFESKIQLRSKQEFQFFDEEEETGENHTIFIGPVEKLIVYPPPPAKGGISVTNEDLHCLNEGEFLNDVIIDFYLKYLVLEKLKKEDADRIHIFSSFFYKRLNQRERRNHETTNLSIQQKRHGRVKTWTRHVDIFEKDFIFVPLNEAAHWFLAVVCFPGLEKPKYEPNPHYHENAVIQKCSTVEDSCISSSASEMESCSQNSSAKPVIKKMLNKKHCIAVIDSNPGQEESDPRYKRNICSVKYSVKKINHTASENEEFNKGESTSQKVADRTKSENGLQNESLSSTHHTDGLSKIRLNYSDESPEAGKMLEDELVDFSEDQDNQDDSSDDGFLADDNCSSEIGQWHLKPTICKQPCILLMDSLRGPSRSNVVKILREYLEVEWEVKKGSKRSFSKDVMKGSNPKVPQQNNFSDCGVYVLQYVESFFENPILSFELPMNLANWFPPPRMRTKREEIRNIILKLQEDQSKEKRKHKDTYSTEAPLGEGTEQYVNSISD
# Hexokinase HKDC1 = target: T6, Hexokinase HKDC1 (Homo sapiens, UniProt Q2TB90); experiment: HKDC1 hexokinase inhibitors, dose response, biochemical, W721R variant (AID 504729)
# T6 sequence (Q2TB90 whole entry): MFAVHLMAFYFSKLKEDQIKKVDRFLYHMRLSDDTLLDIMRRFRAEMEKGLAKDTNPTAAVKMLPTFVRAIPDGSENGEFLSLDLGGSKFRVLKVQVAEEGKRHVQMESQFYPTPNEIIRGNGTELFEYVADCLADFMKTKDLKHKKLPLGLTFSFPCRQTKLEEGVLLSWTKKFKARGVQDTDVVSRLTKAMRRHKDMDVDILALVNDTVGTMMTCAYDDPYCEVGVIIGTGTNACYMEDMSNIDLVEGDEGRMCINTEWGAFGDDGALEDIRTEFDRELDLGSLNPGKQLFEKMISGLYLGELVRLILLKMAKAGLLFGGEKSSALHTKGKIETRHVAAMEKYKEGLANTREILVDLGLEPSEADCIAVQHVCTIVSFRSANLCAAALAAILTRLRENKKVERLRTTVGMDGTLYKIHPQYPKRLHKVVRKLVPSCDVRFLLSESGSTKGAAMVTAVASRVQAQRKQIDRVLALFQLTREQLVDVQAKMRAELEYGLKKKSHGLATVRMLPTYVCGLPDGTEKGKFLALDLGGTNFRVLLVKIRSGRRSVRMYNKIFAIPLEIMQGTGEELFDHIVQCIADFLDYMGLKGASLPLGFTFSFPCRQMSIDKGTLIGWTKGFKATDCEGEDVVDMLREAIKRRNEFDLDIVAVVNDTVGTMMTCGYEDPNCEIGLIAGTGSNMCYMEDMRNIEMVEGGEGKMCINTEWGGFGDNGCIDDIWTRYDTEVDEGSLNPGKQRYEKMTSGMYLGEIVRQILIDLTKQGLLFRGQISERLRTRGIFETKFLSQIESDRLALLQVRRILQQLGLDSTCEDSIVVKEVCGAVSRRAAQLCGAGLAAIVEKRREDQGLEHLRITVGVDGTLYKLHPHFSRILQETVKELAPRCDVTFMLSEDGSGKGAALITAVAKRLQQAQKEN
# [5] = target: Induced myeloid leukemia cell differentiation protein Mcl-1 (Homo sapiens, UniProt Q07820)
# Induced myeloid leukemia cell differentiation protein Mcl-1, sequence (Q07820 whole entry): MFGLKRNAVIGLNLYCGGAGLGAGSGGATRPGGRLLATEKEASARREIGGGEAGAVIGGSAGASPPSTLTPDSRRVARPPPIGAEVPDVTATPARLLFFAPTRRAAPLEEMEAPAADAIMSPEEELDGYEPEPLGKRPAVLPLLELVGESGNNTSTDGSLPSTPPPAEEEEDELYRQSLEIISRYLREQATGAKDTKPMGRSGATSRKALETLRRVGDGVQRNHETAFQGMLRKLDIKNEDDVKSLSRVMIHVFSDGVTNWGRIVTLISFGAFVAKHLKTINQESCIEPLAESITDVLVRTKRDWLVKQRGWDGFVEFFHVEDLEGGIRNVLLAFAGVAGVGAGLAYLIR
# Genome polyprotein = Genome polyprotein (dengue virus type 2, UniProt P29990); experiment: Dengue-2 NS5 methyltransferase inhibitors, primary screen, biochemical, confirmation dose response (AID 588689)
# Genome polyprotein, sequence (P29990 2492-3391 limits assumed): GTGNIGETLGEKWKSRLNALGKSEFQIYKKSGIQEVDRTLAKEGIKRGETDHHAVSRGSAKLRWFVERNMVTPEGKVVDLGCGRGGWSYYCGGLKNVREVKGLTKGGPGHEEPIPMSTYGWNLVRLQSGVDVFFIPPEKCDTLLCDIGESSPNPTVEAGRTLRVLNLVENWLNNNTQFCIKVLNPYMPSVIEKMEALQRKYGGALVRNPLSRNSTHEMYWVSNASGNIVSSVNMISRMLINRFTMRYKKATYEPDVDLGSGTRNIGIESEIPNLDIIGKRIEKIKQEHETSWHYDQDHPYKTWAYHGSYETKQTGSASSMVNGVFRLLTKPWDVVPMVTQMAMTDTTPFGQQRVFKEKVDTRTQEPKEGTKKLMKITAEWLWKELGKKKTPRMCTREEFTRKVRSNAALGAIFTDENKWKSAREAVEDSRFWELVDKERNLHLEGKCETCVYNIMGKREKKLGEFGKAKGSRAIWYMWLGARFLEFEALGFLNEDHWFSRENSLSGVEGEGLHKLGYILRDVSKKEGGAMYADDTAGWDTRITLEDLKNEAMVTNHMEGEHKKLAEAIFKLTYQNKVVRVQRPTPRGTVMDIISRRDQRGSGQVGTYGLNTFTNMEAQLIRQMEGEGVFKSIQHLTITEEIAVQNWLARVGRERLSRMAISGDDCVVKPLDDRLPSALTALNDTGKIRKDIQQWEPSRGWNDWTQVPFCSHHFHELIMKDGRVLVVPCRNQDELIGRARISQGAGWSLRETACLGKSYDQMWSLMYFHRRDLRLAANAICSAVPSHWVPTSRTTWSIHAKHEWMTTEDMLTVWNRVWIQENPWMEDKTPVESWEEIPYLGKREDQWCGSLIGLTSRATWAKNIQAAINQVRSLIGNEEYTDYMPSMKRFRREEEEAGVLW
# [6] = THP-1 cell cytotoxicity, dose response, cytotoxicity control for Vif-APOBEC3G degradation inhibitor project, THP-1 cells (AID 1117359); settings: Human immunodeficiency virus 1, THP-1
Structure (SMILES),CC50 (Vero),IC50 [1],IC50 [2],IC50 [3],IC50 (Caspase-3),IC50 [4],IC50 (Hexokinase HKDC1),IC50 [5],IC50 (Genome polyprotein),CC50 [6]
Cc1cc(O)ccc1/N=C/c1c(C(F)(F)F)n[nH]c1O,> 40 µM (active),30.2 µM (active),,,,,,,,
Cc1ccccc1NC(=O)CCC(=O)N/N=C/c1c[nH]c2ccccc12,,,> 99 µM (inactive),> 99 µM (inactive),> 99 µM (inactive),> 99 µM (inactive),,,,
COc1ccc2[nH]c3c4c(ccc3c2c1)C(=O)C=CC4=O,17.9 µM (active),,,,,,19.1 µM (active),0.919 µM (active),> 100 µM (active),3.94 µM (active)
CCCC(=O)Nc1ccc(C(=O)N/N=C/c2c(C)[nH]c3ccccc23)cc1,,,> 99 µM (inactive),> 99 µM (inactive),> 99 µM (inactive),> 99 µM (inactive),,,,
COCc1c(Br)c(C)nc(OCC(=O)N/N=C/c2c[nH]c3ccccc23)c1C#N,,,> 99 µM (inactive),> 99 µM (inactive),> 99 µM (inactive),> 99 µM (inactive),,,,
